In patent US20230331673A1, “COMPOSITION OF COMPOUNDS THAT MODULATE CELL METABOLISM AND METHODS OF USE” (CRESCENTA BIOSCIENCES, priority 2020, published 2023):

What was measured:
[1] = tested on: differentiated 3T3-L1 mouse adipocyte cells; assay: Adipocyte glucose consumption in differentiated 3T3-L1 mouse adipocyte cells (loss of glucose from medium, colorimetric); type: cell-based; settings: compound 10 μM, 22 to 24 hours, differentiated 3T3-L1 adipocytes, compound/DMSO, read-out: Glucose consumption (fold change) Mean
Summary of the method: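 3T3-L1 cells were differentiated with rosiglitazone, dexamethasone, IBMX and insulin, then used on day 11 or 12. Medium glucose was measured colorimetrically, and consumption was given as mean fold change versus DMSO ± SD.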

[2] = biological target: T1, His6 tagged human recombinant FABP4 (Homo sapiens, UniProt P15090); assay: FABP4 Tb TR-FRET assay: displacement of BODIPY FL C12 fatty acid from His6-FABP4; settings: triplicates, inhibition of BODIPY FL C12 binding
T1 construct: purchased Cayman Chemicals 10009549
T1 sequence (P15090 whole entry): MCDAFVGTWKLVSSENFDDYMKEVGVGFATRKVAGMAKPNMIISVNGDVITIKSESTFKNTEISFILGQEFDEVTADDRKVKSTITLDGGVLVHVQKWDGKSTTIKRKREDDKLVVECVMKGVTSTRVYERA
Text: Activity of compounds with FABP4 was profiled using a Terbium (Tb) based time resolved fluorescence energy transfer (TR-FRET) assay. The assay measures the compound mediated displacement of the fluorescent fatty acid BODIPY FL C12 (Thermo Fisher; catalog number D3822) from His6 tagged human recombinant FABP4 (His6-FABP4; Cayman Chemicals, catalog number 10009549) via recording the energy transfer from TB donor molecule on anti-His6-tag antibody to acceptor BODIPY moiety. Briefly, compounds were prepared at a concentration of 0.362 mM and 0.0362 mM, and BODIPY FL C12 was prepared at 4.2 μM, in DMSO. 1.2 μL of each compound or DMSO (vehicle control) and 1.2 μL of BODIPY FL C12 were added into the wells of a 384-well black polypropylene plate. His6-FABP4 and Tb anti-His6 antibody were prepared in the assay buffer (25 mM Tris/HCl, pH 7.4, 0.4 mg/ml γ-globulins, 0.010% NP-40, 1 mM DTT) at a concentration of 83 nM and 49.6 nM, respectively. The protein and antibody solutions were then mixed at a ratio of 34:7 (v/v) and incubated on ice for 30 minutes. The assay was initiated by adding 41 μL of the resulting protein/antibody solution into the wells containing the compounds and BODIPY FL C12. The plate was centrifuged and incubated at room temperature for 10 min. The TR-FRET signals were recorded using an EnVision Multilabel plate reader (PerkinElmer; TB excitation 320 nm, BODIPY FL C12 emission 520 nm; TB emission 615 nm). Relative fluorescence ratio (520 nm*10,000/615 nm) were used to calculate the compound mediated inhibition of BODIPY C12 FL fatty acid binding to FABP4. […] Glucose consumption and FABP4 inhibition is shown below in Table 3 below.

| Compound | fold induction at 10 µM [1] | inhibition at 1 µM ([2]; 1 μM compound) | further results |
| --- | --- | --- | --- |
| CCCCCCC1CCCc2c(n(Cc3ccc4ocnc4c3)c3c(C(=O)O)cccc23)C1 (stereo not drawn) [5-[(1,3-benzoxazol-5-yl)methyl]-7-hexyl-5H,6H,7H,8H,9H,10H-cyclohepta[b]indole-4-carboxylic acid] | 0.87 | 88% |  |
| CCCCCCC1CCCc2c(n(Cc3ccccc3C#N)c3c(C(=O)O)cccc23)C1 (stereo not drawn) [5-[(2-cyanophenyl)methyl]-7-hexyl-5H,6H,7H,8H,9H,10H-cyclohepta[b]indole-4-carboxylic acid] | 0.91 | 88.5% |  |
| CCCCCCC1CCCc2c(n(Cc3cc(C#N)cs3)c3c(C(=O)O)cccc23)C1 (stereo not drawn) [5-[(4-cyanothiophen-2-yl)methyl]-7-hexyl-5H,6H,7H,8H,9H,10H-cyclohepta[b]indole-4-carboxylic acid] |  | 83.3% | inhibition at 10 µM ([2]; 10 μM compound): 89.4% |
| CCCCCCC1CCCc2c(n(Cc3cccc(OC)c3)c3c(C(=O)O)cccc23)C1 (stereo not drawn) [7-hexyl-5-[(3-methoxyphenyl)methyl]-5H,6H,7H,8H,9H,10H-cyclohepta[b]indole-4-carboxylic acid] | 1.13 | 93.2% |  |
| CCCCCCC1CCCc2c(n(Cc3cccc(C(F)(F)F)n3)c3c(C(=O)O)cccc23)C1 (stereo not drawn) [7-hexyl-5-{[6-(trifluoromethyl)pyridin-2-yl]methyl}-5H,6H,7H,8H,9H,10H-cyclohepta[b]indole-4-carboxylic acid] |  | 79.7% |  |
| CCCCCCC1CCc2c(n(Cc3cccc(C(=O)O)c3)c3c(C(=O)O)cccc23)C1 (stereo not drawn) [9-[(3-carboxyphenyl)methyl]-2-hexyl-2,3,4,9-tetrahydro-1H-carbazole-8-carboxylic acid] | 1.01 |  | FABP4 inhibition (%) at 1 μM Mean ([2]; 1 μM compound): 42.40%; FABP4 inhibition (%) at 10 μM Mean ([2]; 10 μM compound): 80.24% |
| N#Cc1cccc(Cn2c3c(c4cccc(C(=O)O)c42)CCC(CCc2ccccc2)C3)c1 (stereo not drawn) [9-[(3-cyanophenyl)methyl]-2-(2-phenylethyl)-2,3,4,9-tetrahydro-1H-carbazole-8-carboxylic acid] |  | 92.7% |  |
| CCCCC1CCCCc2c1c1cccc(C(=O)O)c1n2Cc1cccc(C(N)=O)c1 (stereo not drawn) [10-butyl-5-[(3-carbamoylphenyl)methyl]-5H,6H,7H,8H,9H,10H-cyclohepta[b]indole-4-carboxylic acid] | 1.14 |  |  |
| CCCCC1CCCCc2c1c1cccc(C(=O)O)c1n2Cc1cccc(C#N)c1 (stereo not drawn) [10-butyl-5-[(3-cyanophenyl)methyl]-5H,6H,7H,8H,9H,10H-cyclohepta[b]indole-4-carboxylic acid] | 1.24 |  |  |
